Experimental data reported in patent US20170022215A1, “Compounds for Eradicating or Inhibiting Proliferation of Cancer Stem Cells” (Godavari Biorefineries Limited, priority 2014, published 2017).

What was measured:
[1] = system: CD44 expressing population (cancer stem cells) of DU145 cells; assay: Flow cytometry analysis (anti-CD44-PE / anti-CD24-FITC staining) of DU145 prostate cancer cells; format: cell-based; details: IC25 drug conc.; for effect on CD44 expressing cell population of DU145 cells (quadrant plot): 48 hrs exposure; for activity on CD44 expressing cells (cancer stem cells population) of DU145 cancer cells compared to standard therapeutic drug Cisplatin: 48 hrs, bar graph FIG. 10, versus Cisplatin
Method: (§1) DU145 is a moderately metastatic prostate cancer cell line. Flow cytometry study was conducted to observe the effect of Ethyl-5-methyl-4-(phenylamino) thieno[2,3-d]pyrimidine-6-carboxylate and Ethyl-5-methyl-4-(4-methylphenyl)amino thieno[2,3-d]pyrimidine-6-carboxylate on DU145 cells compared to standard therapeutic drug Cisplatin.
(§2) 1. […] In the quadrant plot upper left region (Q2-UL) only CD44 expressing cells were observed. In the quadrant plot upper right region (Q2-UR) CD44 and CD24 expressing cells were observed. In the quadrant plot lower left region (Q2-LL) […]. In the quadrant plot lower right region (Q2-LR) […].

[2] = system: CD44 expressing population (cancer stem cells) of MDA MB231 cells; assay: Flow cytometry analysis (anti-CD44-PE / anti-CD24-FITC staining) of MDA MB231 breast cancer cells; format: cell-based; details: IC25 drug conc.; for effect on CD44 expressing cell population of MDA MB231 cells (quadrant plot): 48 hrs exposure; for activity on CD44 expressing cells (cancer stem cells population) of MDA MB231 cancer cells compared to standard therapeutic drug Cisplatin: 48 hrs, bar graph FIG. 5, versus Cisplatin
Method: as §1, with “MDA MB231” for “DU145”, “highly” for “moderately”, “breast” for “prostate”
as §2

| SMILES | effect on CD44 expressing cell population of DU145 cells (quadrant plot) [1] | effect on CD44 expressing cell population of MDA MB231 cells (quadrant plot) [2] | activity on CD44 expressing cells (cancer stem cells population) of DU145 cancer cells compared to standard therapeutic drug Cisplatin [1] | activity on CD44 expressing cells (cancer stem cells population) of MDA MB231 cancer cells compared to standard therapeutic drug Cisplatin [2] |
| --- | --- | --- | --- | --- |
| N.N.[Cl][Pt][Cl] [Cisplatin, reference compound] | did not have much effect | did not have much effect | – | – |
| CCOC(=O)c1sc2ncnc(Nc3ccc(C)cc3)c2c1C [Ethyl-5-methyl-4-(4-methylphenyl)amino thieno[2,3-d]pyrimidine-6-carboxylate] | marked effect | marked effect | much better and enhanced activity | much better and enhanced activity |
| CCOC(=O)c1sc2ncnc(Nc3ccccc3)c2c1C [Ethyl-5-methyl-4-(phenylamino) thieno[2,3-d]pyrimidine-6-carboxylate] | marked effect | marked effect | much better and enhanced activity | much better and enhanced activity |
